# Where two headings read alike, the source gives them in different places.
# Experiments:
# Type in all cases: in vivo
# [1] = tested on: San Jose Scale (Quadraspidiotus perniciosus); assay: Bioassay on San Jose Scale, foliar spray on cotton plants; details: Diaspidiotus perniciosus, 216 h; 200 ppm foliar spray on cotton plants, live nymphs counted 9 days after infestation, Abbott corrected % control; read-out: Scale @ 200 ppm, % Control (or Mortality) rating
# Procedure: Certain molecules disclosed in this document were tested against Scale using procedures described in the following example. In the reporting of the results, the “Table 4: GPA, Scale and WF Rating Table” was used (See Table Section).
# Cotton plants (Gossypium hirsutum) grown in 3-inch pots, with 1 small (4-5 cm) true leaves, were used as test substrate. The plants were infested with 200-400 scale crawlers 1-2 hours after chemical application. Four pots with individual plants were used for each treatment. Test compounds (2 mg) were dissolved in 1 mL of acetone solvent, forming stock solutions of 2000 ppm test compound. The stock solutions were diluted 10× with 0.025% Tween 20 in H2O (diluents) to obtain the solution at 200 ppm test compound. A hand-held aspirator-type sprayer was used for spraying a solution to both sides of cotton leaves until runoff. Reference plants (solvent check) were sprayed with the diluent only containing 10% by volume of acetone solvent. Treated plants were held in a holding room for three days at approximately 25° C. and ambient relative humidity (RH) prior to grading. Evaluation was conducted by counting the number of live 2-3 nymphal stage per plant under a microscope 9 days after infestation. Percent Control was measured by using Abbott's correction formula (W. S. Abbott, “A Method of Computing the Effectiveness of an Insecticide” J. Econ. Entomol. 18 (1925), pp. 265-267) as follows.
# Corrected % Control=100*(X−Y)/X • where • X=No. of live nymphs on solvent check plants and • Y=No. of live nymphs on treated plants
# (§1) The results are indicated in the table entitled “Table 5: BAW, CEW, GPA, Scale and WF Results” (See Table Section).
# [2] = tested on: Sweet Potato Whitefly (WF) (Bemisia tabaci); assay: Bioassay on Sweet Potato Whitefly (WF), foliar spray on cotton plants; details: 216 h, 200 ppm foliar spray on cotton plants, graded after 9 days, Abbott corrected % control, read-out: WF @ 200 ppm, % Control (or Mortality) rating
# Procedure: Certain molecules disclosed in this document were tested against WF using procedures described in the following example. In the reporting of the results, the “Table 4: GPA, Scale and WF Rating Table” was used (See Table Section).
# Cotton plants (Gossypium hirsutum) grown in 3-inch pots, with 1 small (4-5 cm) true leaves, were used as test substrate. The plants were infested with 200-400 whitefly eggs 4-5 days prior to chemical application. Four pots with individual plants were used for each treatment. Test compounds (2 mg) were dissolved in 1 mL of acetone solvent, forming stock solutions of 2000 ppm test compound. The stock solutions were diluted 10× with 0.025% Tween 20 in H2O (diluents) to obtain the solution at 200 ppm test compound. A hand-held aspirator-type sprayer was used for spraying a solution to both sides of cotton leaves until runoff. Reference plants (solvent check) were sprayed with the diluent only containing 10% by volume of acetone solvent. Treated plants were held in a holding room for 9 days at approximately 25° C. and ambient relative humidity (RH) prior to grading. Evaluation was conducted by counting the number of live 3-4 nymphal stage per plant under a microscope. Percent Control was measured by using Abbott's correction formula (W. S. Abbott, “A Method of Computing the Effectiveness of an Insecticide” J. Econ. Entomol. 18 (1925), pp. 265-267) as follows.
# Corrected % Control=100*(X−Y)/X • where • X=No. of live nymphs on solvent check plants and • Y=No. of live nymphs on treated plants.
# as §1
# [3] = tested on: Beet Armyworm (BAW) (Spodoptera exigua); assay: Bioassay on Beet Armyworm (BAW), 128-well diet tray assay; details: 120 h
# Procedure: Certain molecules disclosed in this document were tested against BAW and CEW using procedures described in the following examples. In the reporting of the results, the “Table 3: BAW & CEW Rating Table” was used (See Table Section).
# Bioassays on BAW (Spodoptera exigua)
# Bioassays on BAW were conducted using a 128-well diet tray assay. […] Trays were covered with a clear self-adhesive cover, and held at 25° C., 14:10 light-dark for five days. Percent mortality was recorded for the larvae in each well; activity in the eight wells was then averaged. The results are indicated in the table entitled “Table 5: BAW, CEW, GPA, Scale and WF Results” (See Table Section).
# [4] = tested on: Green Peach Aphid (GPA) (Myzus persicae); assay: Bioassay on Green Peach Aphid (GPA), foliar spray on cabbage seedlings; details: 72 h, 200 ppm foliar spray on cabbage seedlings, graded after three days, Abbott corrected % control, read-out: GPA @ 200 ppm, % Control (or Mortality) rating
# Procedure: Certain molecules disclosed in this document were tested against GPA using procedures described in the following example. In the reporting of the results, the “Table 4: GPA, Scale and WF Rating Table” was used (See Table Section).
# Cabbage seedlings grown in 3-inch pots, with 2-3 small (3-5 cm) true leaves, were used as test substrate. The seedlings were infested with 20-50 GPA (wingless adult and nymph stages) one day prior to chemical application. Four pots with individual seedlings were used for each treatment. Test compounds (2 mg) were dissolved in 2 mL of acetone/methanol (1:1) solvent, forming stock solutions of 1000 ppm test compound. The stock solutions were diluted 5× with 0.025% Tween 20 in H2O to obtain the solution at 200 ppm test compound. A hand-held aspirator-type sprayer was used for spraying a solution to both sides of […] leaves until runoff. Reference plants (solvent check) were sprayed with the diluent only containing 20% by volume of acetone/methanol (1:1) solvent. Treated plants were held in a holding room for three days at approximately 25° C. and ambient relative humidity (RH) prior to grading. Evaluation was conducted by counting the number of live aphids per plant under a microscope. Percent Control was measured by using Abbott's correction formula (W. S. Abbott, “A Method of Computing the Effectiveness of an Insecticide” J. Econ. Entomol. 18 (1925), pp. 265-267) as follows.
# Corrected % Control=100*(X−Y)/X • where • X=No. of live aphids on solvent check plants and • Y=No. of live aphids on treated plants
# as §1
# [5] = second instar larvae on treated artificial diet, five days, 25° C., read-out: BAW, % Control (or Mortality) rating
structure (smiles),measurement,setting,value
"FC(F)(F)c1cccc(-c2cnn(-c3cccnc3)c2)n1 [Compound 1, 2-(1-(pyridin-3-yl)-1H-pyrazol-4-yl)-6-(trifluoromethyl)pyridine]",mortality at 200 ppm,[1],80 to 100%
same,mortality at 200 ppm,[2],0 to 80%
same,mortality,"[3]; read-out: BAW, % Control (or Mortality) rating",50 to 100%
same,mortality at 200 ppm,[4],80 to 100%
"FC(F)(F)c1ccc(-c2cnn(-c3cccnc3)c2)cn1 [Compound 2, 5-(1-(pyridin-3-yl)-1H-pyrazol-4-yl)-2-(trifluoromethyl)pyridine]",mortality at 200 ppm,[1],0%
same,mortality,[3]; [5],50 to 100%
same,mortality at 200 ppm,[4],80 to 100%
"Cc1nn(-c2cncc(F)c2)cc1-c1cccc(C(F)(F)F)n1 [Compound 3, 2-(1-(5-fluoropyridin-3-yl)-3-methyl-1H-pyrazol-4-yl)-6-(trifluoromethyl)pyridine]",mortality at 200 ppm,[1],80 to 100%
same,mortality,[3]; [5],50 to 100%
same,mortality at 200 ppm,[4],80 to 100%
Cc1nn(-c2cccnc2)cc1-c1cccc(C(F)(F)F)n1 [Compound 4],mortality at 200 ppm,[1],80 to 100%
same,mortality,[3]; [5],50 to 100%
same,mortality at 200 ppm,[4],80 to 100%
Cc1nn(-c2cccnc2)cc1-c1ccnc(C(F)(F)F)n1 [Compound 5],mortality at 200 ppm,[1],80 to 100%
same,mortality,[3]; [5],50 to 100%
same,mortality at 200 ppm,[4],80 to 100%
Fc1cncc(-n2cc(-c3cccc(C(F)(F)F)n3)c(Cl)n2)c1 [Compound 7],mortality at 200 ppm,[1],80 to 100%
same,mortality,[3]; [5],50 to 100%
same,mortality at 200 ppm,[4],80 to 100%
Cc1nccc(-c2cn(-c3cccnc3)nc2C)n1 [Compound 8],mortality at 200 ppm,[1],80 to 100%
same,mortality,[3]; [5],50 to 100%
same,mortality at 200 ppm,[4],80 to 100%
COc1ccnc(-c2cn(-c3cccnc3)nc2C)n1 [Compound 9],mortality at 200 ppm,[1],80 to 100%
same,mortality,[3]; [5],50 to 100%
same,mortality at 200 ppm,[4],80 to 100%
Cc1nn(-c2cccnc2)cc1-c1cc(C(F)(F)F)ncn1 [Compound 10],mortality at 200 ppm,[1],80 to 100%
same,mortality,[3]; [5],50 to 100%
same,mortality at 200 ppm,[4],80 to 100%
COc1cc(-c2cn(-c3cccnc3)nc2C)ncn1 [Compound 11],mortality at 200 ppm,[1],0 to 80%
same,mortality,"[3]; 200 ppm, second instar larvae on treated artificial diet, five days, 25° C., read-out: BAW @ 200 ppm, % Control (or Mortality) rating",50 to 100%
same,mortality at 200 ppm,[4],80 to 100%
COc1cc(-c2cn(-c3cccnc3)nc2C)nc(OC)n1 [Compound 12],mortality at 200 ppm,[1],0 to 80%
same,mortality,[3]; [5],50 to 100%
same,mortality at 200 ppm,[4],80 to 100%
